Source: publication PMC8571378, “Reversion analysis reveals the in vivo immunogenicity of a poorly MHC I-binding cancer neoepitope” (Nature Communications, 2021)

Tests used:
[1] = test system: tumor infiltrating CD45 + cells; experiment: scRNA seq of tumor infiltrating CD45+ cells in immunized mice; assay type: in vivo, BALB/cJ mice
Excerpt: Tumor microenvironment (TME) of Ccdc85c^MUT-immunized mice was examined using single cell RNA sequencing (scRNA seq). BMDCs- immunized mice were used as controls. As a peptide control, mice immunized with a neoepitope Alms1^MUT were used. […] Mice were immunized with Ccdc85c^MUT, Alms1^MUT (peptide control) or BMDCs (control) as described in Methods, and were challenged with Meth A. RNA from CD45 + cells (estimated 15,925 cells for the four libraries after QC, with an average coverage of 32,663 reads per cell and median 1,339 genes per cell) was sequenced. Data from the four libraries were pooled and clustered based on the gene expression pattern of each as described in Methods. Annotation of the clusters was informed by both differentially expressed genes (DE Genes) and per cluster highly expressed genes identified by the TF-IDF analysis as described in Methods. Two major and distinct clusters were identified namely, myeloid and lymphoid. […] The proportion of lymphoid versus myeloid compartments in the Ccdc85c^MUT library was very different compared to the Alms1^MUT or control groups. The Ccdc85c^MUT library was mostly composed of lymphoid cells (62.68% lymphoid and 37.32% myeloid), while the control groups and mice immunized with Alms1^MUT were mostly composed of the myeloid compartment (~35% lymphoid and ~64% myeloid) (Fig. 2a, right panel). In order to study different cell types, lymphoid and myeloid clusters were re-clustered into 6 and 9 sub-clusters, respectively (Fig. 2a, bottom panel). The six identified lymphoid clusters were: CD4 T cells (CD4(1)), NKC(1), naive/early activated CD4 T cells (CD4(2), defined by a high expression of Sell, Il7r, Tcf7 and Ccr7 genes and low expression of Il2ra and lack of expression of effector and cytotoxicity genes), NKC(2) (less cytotoxic and active than NKC(1)), CD8 T cells (CD8) and proliferating CD4/CD8 T cells (Pr. CD4/CD8, defined by higher expression of Stmn1 and Mki67 genes and cell cycle gene expression analysis, described in Methods). The selected genes used as markers to annotate each lymphocyte cluster are listed in the summary heat map (Fig. 2b, right panel).
Fig. 2 Immune response in mice immunized with Ccdc85c^MUT and control neoepitope Alms1.1^MUT. a Tumors from mice immunized with Ccdc85c^MUT or Alms1.1^MUT as well as two groups of control mice immunized with BMDCs were harvested 10 days after tumor challenge. Tumor infiltrating CD45 + cells were sorted and analyzed by scRNA seq as described in Methods and Supplementary Fig 9b. Combined scRNA seq data from four libraries were analyzed. The t-SNE[34] plots of all intra-tumoral immune cells as well as myeloid and lymphoid compartments are shown in the top left panel. Myeloid and lymphoid composition for each library is shown on the right panel. The myeloid and lymphoid sub-clusters are shown in the bottom panels. See text for definition of each sub-cluster. b Heat maps of the indicated genes in the myeloid and lymphoid compartments are shown. The heat map genes were selected from the list of differentially expressed genes, genes with a high average TF-IDF score, and typical cell type markers. The average gene expression for each cluster was normalized by dividing it from the maximum value of each row (gene). c Summary heat map of selected genes associated with cytotoxicity for pooled activated T cells is shown. The heat map illustrates scaled (Z-scored) average gene expression by library. TEXT PRINTED IN THE PICTURE: (a) Alms1.1^MUT: Lymphoid cells: 34.28%; Myeloid cells: 65.72% | (a) Ccdc85c^MUT: Lymphoid cells: 62.68%; Myeloid cells: 37.32% DOUBTS OF THE COPYIST ABOUT THIS PICTURE: Panel a, bar chart: no measure is printed beside the percentages. I assigned them to 'Lymphoid cells' (blue) and 'Myeloid cells' (red) only by matching the colours of the plot next to it. / Panel a, bar chart: the control bars also carry percentages (Cont.1: 35.75% and 64.25%; Cont.2: 37.55% and 62.45%). […]

Meth A = experiment: CD4 depletion (GK1.5) in immunized, Meth A-challenged mice; assay type: in vivo, BALB/cJ mice
Excerpt: In order to determine if any peptides within Ccdc85c^MUT could be presented by MHC II molecules, we analyzed the interaction of H2-A^d and H2-E^d with TYIRPFETKVK, YIRPFETKVK and IRPFETKVK as well as their wild type counterparts, using a cell-surface density assay. In this assay, β-chains of H2-Ab1^d or H2-Eb1^d are expressed in fusion with the peptide of interest and the amount of cell-surface MHC II, as a measure of intrinsic stability of MHC II, is quantified in engineered conditions. The measured cell-surface MHC density correlates well with the actual affinity of the peptide to MHC II. […] This was observed when CD4 depletion was carried out during the priming phase alone (as in Supplementary Fig. 2b), or throughout the entire experiment including the effector phase (i.e. post tumor challenge).
Supplementary Fig. 2. Assessing CD4 response to Ccdc85c . a Presentation of Ccdc85cMUT and Ccdc85cWT peptides by H2-IA and H2-IE are measured by cell-surface density assay. The y-axis indicates MHC/GFP (ratio of MHC MFI to GFP MFI) for MHC II-peptide, normalized to the MHC/GFP of the negative control peptide, G9, 9-mer all-glycine. Four technical and two independent biological repeats of this experiment have been practiced. The following additional negative control peptides are used: G12 (12-mer all-glycine) and GGS12 (4x(glycine-glycine-serine). b. Naïve BALB/cJ mice were injected with 250 µg of CD4 depleting GK1.5 antibody or isotype control during the priming phase (6 days before the first immunization). Mice were immunized, as described in the Methods, with Ccdc85cMUT and were challenged with 95,000 Meth A cells. The differences between tumor growth curves […]
(1 picture or pasted object on this page, not shown here)

[2] = compared to control or Alms1^MUT libraries
[3] = tumors harvested 10 days after Meth A challenge

## DPSSTYIRPFETKVKLLD [18-mer peptide with the mutant amino acid near the center]
[1]; Mφ1
  contribution of library to myeloid cluster Mφ1: ~ 20%
[1]; Mφ2, highest apart from Mφ1
  contribution of library to myeloid cluster Mφ2: 13.4%
[1]; Mφ3, lowest contribution
  contribution of library to myeloid cluster Mφ3: 1.6%
[1]; [2]
  expression of cytotoxicity (Gzmb, Prf, Nkg7) and effector function (Ifng) genes in T cells: significantly higher
  expression of genes involved in TCR engagement (Nr4a1 and Irf4) in T cells: significantly higher
[1]; compared to other libraries
  expression of Eomes in T cells: significantly higher
[1]; proliferating CD4/CD8 T excluded
  contribution of library to pooled activated CD4 and CD8 T cells (clusters 1 and 5): 31%
[1]; [3]
  Lymphoid cells, fraction of intra-tumoral immune cells: 62.68%
  Myeloid cells, fraction of intra-tumoral immune cells: 37.32%
  fraction of NK cells from the NKC(1) (more cytotoxic and active) cluster: ~ 80%
Meth A; 250 µg GK1.5, priming phase (6 days before first immunization), 95,000 Meth A cells, listed as Ccdc85cMUT
  effect of CD4 T cell depletion on tumor rejection: not statistically significant
Meth A; 250 µg GK1.5, priming phase (6 days before first immunization), 95,000 Meth A cells, listed as Ccdc85c^MUT
  effect of CD4 T cell depletion on tumor rejection: did not lead to reproducible and statistically significant abrogation of tumor rejection
Meth A; depletion throughout the entire experiment including the effector phase
  effect of CD4 T cell depletion on tumor rejection: did not lead to reproducible and statistically significant abrogation of tumor rejection
